# Values of other authors, collected in patent US20210023029A1, “EDASALONEXENT DOSING REGIMEN FOR TREATING MUSCULAR DYSTROPHY” (Catabasis Pharmaceuticals, Inc., priority 2017, published 2021).
# Tested on: mdx mice
# Conditions: long-term studies on mdx mice; cited from earlier work
smiles,measurement,value
CC/C=C\C/C=C\C/C=C\C/C=C\C/C=C\CCCC(=O)NCCNC(=O)c1ccccc1O [CAT-1041],"muscle function, skeletal muscle weight and muscle fibrosis","preserves muscle function, increases skeletal muscle weight, and reduces muscle fibrosis"
